The text below walks through data of paper PMC3089059 (Bioorganic & medicinal chemistry, 2011).

The target in data set [1] is T1, JNK1 (Homo sapiens, UniProt P45983). Format: biochemical.
Data set [2] concerns the target JNK1 (Homo sapiens, UniProt P45984). In words: biochemical. The format is binding. As to conditions: ITC.
Data set [3] in a line: Microsomal stability assay. Format: in vitro ADME. As to conditions: after 60 min of incubation in rat microsomal preparations, 4 μM, NADPH.
Data set [4] in a line: Plasma stability assay. Format: in vitro ADME. The settings on record: after 60 min of incubation in rat plasma, 1 μM, 37 °C.
The target in data set [5] is T1, JNK1. In words: DELFIA assay, displacement of biotinylated pepJIP1 from GST-JNK1. Format: binding.

Molecules are shown by their SMILES.

T1 sequence (P45983 whole entry): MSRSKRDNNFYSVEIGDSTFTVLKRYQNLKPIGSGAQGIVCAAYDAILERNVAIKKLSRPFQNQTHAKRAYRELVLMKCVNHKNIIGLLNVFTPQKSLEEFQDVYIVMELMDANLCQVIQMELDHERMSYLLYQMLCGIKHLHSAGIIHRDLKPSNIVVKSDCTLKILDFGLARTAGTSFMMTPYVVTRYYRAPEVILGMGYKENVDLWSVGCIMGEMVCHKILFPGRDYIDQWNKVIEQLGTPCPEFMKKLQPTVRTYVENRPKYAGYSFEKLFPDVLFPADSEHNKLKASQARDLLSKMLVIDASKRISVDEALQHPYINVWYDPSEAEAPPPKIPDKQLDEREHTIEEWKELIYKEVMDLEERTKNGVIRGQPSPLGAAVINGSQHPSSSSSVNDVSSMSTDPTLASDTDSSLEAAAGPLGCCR
Sequence of JNK1 (Homo sapiens, UniProt P45984) (P45984 whole entry): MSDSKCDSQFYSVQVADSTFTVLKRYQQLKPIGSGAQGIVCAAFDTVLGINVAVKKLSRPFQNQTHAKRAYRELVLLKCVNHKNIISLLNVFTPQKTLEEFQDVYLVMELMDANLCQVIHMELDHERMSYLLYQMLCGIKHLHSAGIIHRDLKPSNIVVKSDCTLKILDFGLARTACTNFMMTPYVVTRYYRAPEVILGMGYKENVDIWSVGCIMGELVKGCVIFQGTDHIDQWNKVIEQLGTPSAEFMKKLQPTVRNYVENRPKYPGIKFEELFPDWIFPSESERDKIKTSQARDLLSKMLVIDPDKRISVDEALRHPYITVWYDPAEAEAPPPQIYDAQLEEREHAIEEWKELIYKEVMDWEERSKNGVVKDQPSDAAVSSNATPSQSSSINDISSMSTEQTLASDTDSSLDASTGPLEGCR

Take `NC(=O)c1ccsc1NC(=O)Cc1csc2ccccc12` [Compound 25]: the “mode of inhibition versus ATP (Lineweaver-Burk)” value in data set [1] (increasing ATP concentrations) is on record as “ATP competitive inhibitor”. Further, the “mode of inhibition versus substrate ATF2 (Lineweaver-Burk)” value in data set [1] (increasing substrate ATF2 concentrations) is reported as “mixed substrate competitive inhibitor”. In addition, the values for the Kd in data set [2] (in presence of ATP (saturating non-hydrolizable ATP)) and in data set [2] (in presence of pepJIP1 (saturating)) were 1.1 µM and 3.1 µM, respectively. For the same molecule, the degraded in data set [3] came to 85%. The plasma stability entry in data set [4] was “basically unaltered”. `NC(=O)c1ccsc1NC(=O)Cc1cccc(Br)c1` [Compound 33]: the degraded in data set [3] amounted to 74%. In data set [4], the plasma stability entry was “basically unaltered”. Turning to `Cc1sc(NC(=O)Cc2cccc3ccccc23)c(C(N)=O)c1C` [Compound 1, 4,5-dimethyl-2-(2-(naphthalen-1-yl)acetamido)thiophene-3-carboxamide], the IC50 (as a rule, the midpoint of a concentration-inhibition curve) in data set [5] was determined as 15.8 µM. As to `N#Cc1ccsc1NC(=O)Cc1cccc2ccccc12` [Compound 5c], the “JNK1 inhibitory activity (in words)” value in data set [1] was “significant loss of JNK1 inhibitory activity”. In the case of `NC(=O)c1ccsc1NC(=O)Cc1ccccc1Cl` [Compound 26], the degraded in data set [3] came out at 70%. Besides, the plasma stability entry in data set [4] is “basically unaltered”.

`NC(=O)c1ccc(NC(=O)Cc2cccc3ccccc23)s1` [Compound 5f]: the “JNK1 inhibitory activity (in words)” value in data set [1] is “completely inactive”.

As to `O=C(Cc1cccc2ccccc12)Nc1sccc1C(=O)O` [Compound 5a], in data set [1], the “JNK1 inhibitory activity (in words)” value is recorded as “significant loss of JNK1 inhibitory activity”. Still for that read-out and setting: under `COC(=O)c1ccsc1NC(=O)Cc1cccc2ccccc12` [Compound 5b] stands “significant loss of JNK1 inhibitory activity”.
